Like-named read-outs stand apart in the source and are kept apart here. Bridge positions count the residues as written; N and C are the ends. Square brackets hold non-standard residues; d marks the D form. Peptide text beside a SMILES is read from it. d2Nal = N[C@H](Cc1ccc2ccccc2c1)C(=O)O; Nle = CCCC[C@H](N)C(=O)O
Assays:
human MC5 = conditions: mean ± SEM, cited from earlier work; for Ki: competition
human MC3 = conditions: mean ± SEM, cited from earlier work; for Ki: competition
human MC4 = conditions: mean ± SEM, cited from earlier work; for Ki: competition
lamprey MCa receptor = biological target: T1, lamprey MCa receptor (Lampetra fluviatilis, UniProt A6XB56); experiment: Radioligand binding assay (saturation and competition, [125I] NDP-MSH), lamprey MCa; design: species or system river lamprey; conditions: for affinity for lamprey MCa compared to the human MC1 and MC3 receptors: p < 0.01 for α-MSH, γ-MSH, ACTH(1–39)
T1 sequence (A6XB56 1-341): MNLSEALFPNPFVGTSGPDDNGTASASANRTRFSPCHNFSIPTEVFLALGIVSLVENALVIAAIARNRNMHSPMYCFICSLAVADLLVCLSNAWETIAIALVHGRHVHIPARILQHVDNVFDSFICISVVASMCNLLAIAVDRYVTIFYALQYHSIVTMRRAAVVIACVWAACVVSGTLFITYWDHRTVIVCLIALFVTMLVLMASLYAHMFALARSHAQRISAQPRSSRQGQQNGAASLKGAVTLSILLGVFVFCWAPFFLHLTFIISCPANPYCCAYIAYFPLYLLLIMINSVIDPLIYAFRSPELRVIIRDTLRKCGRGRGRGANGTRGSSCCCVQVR
Description: HEK-293 (human embryonic kidney) cells with Epstein-Barr nuclear antigen (EBNA) grown to 50–70% confluence were transfected with 10 μg of the construct using FuGENE-6 Transfection Reagent (Roche, Sweden) according to the manufacturers' instruction. The cells were grown in Dulbeccos Modified Eagle Media and F-12 Nutrient Mixture (D-MEM/F-12) (1:1) with GlutaMAX I containing 10% foetal bovine serum, 100 u/ml penicillin, 100 μg/ml streptomycin, 2.5 ug/ml amphotericin B, and 250 μg/ml geneticin G-418 (Invitrogen); in humidified atmosphere of 95% air and 5% CO2 at 37°C. Semi-stable cell lines, expressing target receptor, were obtained by selecting for growth in the presence of 100 μg/ml hygromycin B (Invitrogen), first added 24 hours after transfection.
HEK-293 EBNA cells expressing MC receptors were harvested from plate and resuspended in binding buffer composed of 25 mM HEPES, 2.5 mM CaCl2, 1 mM MgCl2 and 0.2% bacitracin, pH adjusted to 7.4. To obtain the membranes, cells were mechanically homogenized with Ultra Turrax. Cell suspensions were centrifuged for 3 min at 190 g and membranes were collected from the supernatant by centrifugation for 15 min at 20000 g. The pellet was resuspended in binding buffer. The binding was performed in a final volume of 100 μl for 2 h at room temperature. Saturation experiments were carried out with serial dilutions of [^125I] […] Competition experiments were performed with constant 0.6 nM concentration of [^125I] […] The membranes were collected by filtration on Glass Fibre filters, Filtermat A (Perkin Elmer, USA), using a TOMTEC Mach III cell harvester (Orange, CT, USA). The filters were washed with 5 ml per well of 50 mM Tris HCl (pH 7.4) and dried at 50°C. MeltiLex A scintillator sheets (Perkin Elmer, USA) were melted on dried filters and radioactivity was counted with an automatic Microbeta counter 1450 (Perkin Elmer). Binding assays were performed in duplicate with at least three independent experiments. […] The results were analysed with Prism 3.0 software package (GraphPad, USA). Binding affinities were compared with one-way ANOVA Tukey's post-hoc tests.

human MC1 = conditions: mean ± SEM, cited from earlier work; for Ki: competition
[1] = system: Non-transfected cells (HEK-293 EBNA); experiment: Radioligand binding, non-transfected cells; design: species or system human; conditions: [125I] NDP-MSH
Description: HEK-293 EBNA cells expressing MC receptors were harvested from plate and resuspended in binding buffer composed of 25 mM HEPES, 2.5 mM CaCl2, 1 mM MgCl2 and 0.2% bacitracin, pH adjusted to 7.4. To obtain the membranes, cells were mechanically homogenized with Ultra Turrax. Cell suspensions were centrifuged for 3 min at 190 g and membranes were collected from the supernatant by centrifugation for 15 min at 20000 g. The pellet was resuspended in binding buffer. The binding was performed in a final volume of 100 μl for 2 h at room temperature. Saturation experiments were carried out with serial dilutions of [^125I] NDP-MSH { [Nle^4, D-Phe^7]α-MSH}, labelled by the Chloramine-T method. Non-specific binding was determined in the presence of 1 μM unlabeled NDP-MSH. Competition experiments were performed with constant 0.6 nM concentration of [^125I] NDP-MSH and serial dilutions of competing unlabelled human ligands: NDP-MSH, α-MSH, β-MSH, γ1-MSH, ACTH (1–17) ACTH (1–24) ACTH (1–39), MTII, HS024) (Neosystem, France) and lamprey ligands: MSH-A, MSH-B, ACTH(1–31). […] MeltiLex A scintillator sheets (Perkin Elmer, USA) were melted on dried filters and radioactivity was counted with an automatic Microbeta counter 1450 (Perkin Elmer). […] The results were analysed with Prism 3.0 software package (GraphPad, USA). […]

[2] = comparison with previously published human values
[3] = saturation, [125I] NDP-MSH, ref [42]

## CSCC[C@H](NC(=O)[C@H](CO)NC(=O)[C@H](Cc1ccc(O)cc1)NC(=O)[C@@H](N)CO)C(=O)N[C@@H](CCC(=O)O)C(=O)N[C@@H](Cc1c[nH]cn1)C(=O)N[C@@H](Cc1ccccc1)C(=O)N[C@@H](CCCNC(=N)N)C(=O)N[C@@H](Cc1c[nH]c2ccccc12)C(=O)NCC(=O)N[C@@H](CCCCN)C(=O)N1CCC[C@H]1C(=O)N[C@H](C(=O)NCC(=O)N[C@@H](CCCCN)C(=O)N[C@@H](CCCCN)C(=O)N[C@@H](CCCNC(=N)N)C(=O)O)C(C)C [ACTH (1–17)]
Human MC5; ref [40]
  Ki: 4240 ± 1200 nM
Human MC3; ref [40]
  Ki: 14 ± 4.5 nM
Human MC4; ref [40]
  Ki: 419 ± 62 nM
Lamprey MCa receptor
  Ki: 51.1 ± 3.2 nM
Lamprey MCa receptor; [2]
  affinity for lamprey MCa compared to the human MC4 and MC5 receptors: clearly higher affinities
  affinity for lamprey MCa compared to the human MC1 and MC3 receptors: clearly lower affinities
Human MC1; ref [40]
  Ki: 0.23 ± 0.061 nM

## CSCC[C@H](NC(=O)[C@@H](NC(=O)[C@@H](N)Cc1ccc(O)cc1)C(C)C)C(=O)NCC(=O)N[C@@H](Cc1c[nH]cn1)C(=O)N[C@@H](Cc1ccccc1)C(=O)N[C@@H](CCCNC(=N)N)C(=O)N[C@@H](Cc1c[nH]c2ccccc12)C(=O)N[C@@H](CC(=O)O)C(=O)N[C@@H](CCCNC(=N)N)C(=O)N[C@@H](Cc1ccccc1)C(N)=O [γ1-MSH]
Human MC5; ref [39]
  Ki: 42600 ± 6600 nM
Human MC3; ref [42]
  Ki: 7.45 ± 2.55 nM
Human MC4; ref [42]
  Ki: 51800 ± 12000 nM
Lamprey MCa receptor
  Ki: 684 ± 7 nM
Lamprey MCa receptor; [2]
  affinity for lamprey MCa compared to the human MC4 and MC5 receptors: clearly higher affinities
  affinity for lamprey MCa compared to the human MC1 and MC3 receptors: clearly lower affinities
Human MC1; ref [39]
  Ki: 2.68 ± 0.35 nM

## CSCC[C@H](NC(=O)[C@H](CO)NC(=O)[C@H](Cc1ccc(O)cc1)NC(=O)[C@@H](N)CO)C(=O)N[C@@H](CCC(=O)O)C(=O)N[C@@H](Cc1cnc[nH]1)C(=O)N[C@@H](Cc1ccccc1)C(=O)N[C@@H](CCCNC(=N)N)C(=O)N[C@@H](Cc1c[nH]c2ccccc12)C(=O)NCC(=O)N[C@@H](CCCCN)C(=O)N1CCC[C@H]1C(=O)N[C@H](C(=O)NCC(=O)N[C@@H](CCCCN)C(=O)N[C@@H](CCCCN)C(=O)N[C@@H](CCCNC(=N)N)C(=O)N[C@@H](CCCNC(=N)N)C(=O)N1CCC[C@H]1C(=O)N[C@H](C(=O)N[C@@H](CCCCN)C(=O)N[C@H](C(=O)N[C@@H](Cc1ccc(O)cc1)C(=O)N1CCC[C@H]1C(=O)N[C@@H](CC(N)=O)C(=O)NCC(=O)N[C@@H](C)C(=O)N[C@@H](CCC(=O)O)C(=O)N[C@@H](CC(=O)O)C(=O)N[C@@H](CCC(=O)O)C(=O)N[C@@H](CO)C(=O)N[C@@H](C)C(=O)N[C@@H](CCC(=O)O)C(=O)N[C@@H](C)C(=O)N[C@@H](Cc1ccccc1)C(=O)N1CCC[C@H]1C(=O)N[C@@H](CC(C)C)C(=O)N[C@@H](CCC(=O)O)C(=O)N[C@@H](Cc1ccccc1)C(=O)O)C(C)C)C(C)C)C(C)C [ACTH (1–39), adrenocorticotropic hormone] (H-SYSMEHFRWGKPVGKKRRPVKVYPNGAEDESAEAFPLEF-OH)
Lamprey MCa receptor
  Ki: 291 ± 20 nM

## CCCC[C@H](NC(=O)[C@H](CO)NC(=O)[C@H](Cc1ccc(O)c(I)c1)NC(=O)[C@H](CO)NC(C)=O)C(=O)N[C@@H](CCC(=O)O)C(=O)N[C@@H](Cc1c[nH]cn1)C(=O)N[C@H](Cc1ccccc1)C(=O)N[C@@H](CCCNC(=N)N)C(=O)N[C@@H](Cc1c[nH]c2ccccc12)C(=O)NCC(=O)N[C@@H](CCCCN)C(=O)N1CCC[C@H]1C(=O)N[C@H](C(N)=O)C(C)C [[^125I] NDP-MSH, [Nle^4, D-Phe^7]α-MSH]
Human MC5; saturation, [125I] NDP-MSH, ref [39]
  Kd: 5.05 ± 1 nM
Human MC3; [3]
  Kd: 0.412 ± 0.121 nM
Human MC4; [3]
  Kd: 1.78 ± 0.36 nM
Lamprey MCa receptor; read-out: Kd (mean ± SEM) from saturation curves, lamprey MCa, HEK-293 EBNA membranes, pH 7.4, 2 h, room temperature, non-specific binding with unlabelled NDP-MSH, mean ± SEM, duplicate, at least three independent experiments
  Kd: 2.46 ± 0.68 nM
[1]
  specific binding, non-transfected cells: did not show any specific binding
Human MC1; saturation, [125I] NDP-MSH, ref [38]
  Kd: 0.109 ± 0.062 nM

## CCCC[C@@H]1NC(=O)[C@@H](NC(C)=O)CSSC[C@@H](C(N)=O)NC(=O)CNC(=O)[C@H](Cc2c[nH]c3ccccc23)NC(=O)[C@H](CCCNC(=N)N)NC(=O)[C@@H](Cc2ccc3ccccc3c2)NC(=O)[C@H](Cc2c[nH]cn2)NC(=O)[C@H](CCCNC(=N)N)NC1=O [HS024] (Ac-C[Nle]RH[d2Nal]RWGC-NH2; disulfide 1-9 (inferred); N-terminus and C-terminus assumed)
Human MC5; ref [41]
  Ki: 3.29 ± 1.15 nM
Human MC3; ref [42]
  Ki: 15.1 ± 3 nM
Human MC4; ref [42]
  Ki: 0.341 ± 0.089 nM
Lamprey MCa receptor
  Ki: 72.5 ± 1.4 nM
Lamprey MCa receptor; [2]
  affinity for lamprey MCa compared to the human MC1, MC3, MC4 and MC5 receptors: clearly lower affinities
Human MC1; ref [41]
  Ki: 18.6 ± 3.3 nM

## CSCC[C@H](NC(=O)[C@H](CO)NC(=O)[C@H](Cc1ccc(O)cc1)NC(=O)[C@@H](N)CO)C(=O)N[C@@H](CCC(=O)O)C(=O)N[C@@H](Cc1c[nH]cn1)C(=O)N[C@@H](Cc1ccccc1)C(=O)N[C@@H](CCCNC(=N)N)C(=O)N[C@@H](Cc1c[nH]c2ccccc12)C(=O)NCC(=O)N[C@@H](CCCCN)C(=O)N1CCC[C@H]1C(=O)N[C@H](C(=O)NCC(=O)N[C@@H](CCCCN)C(=O)N[C@@H](CCCCN)C(=O)N[C@@H](CCCNC(=N)N)C(=O)N[C@@H](CCCNC(=N)N)C(=O)N1CCC[C@H]1C(=O)N[C@H](C(=O)N[C@@H](CCCCN)C(=O)N[C@H](C(=O)N[C@@H](Cc1ccc(O)cc1)C(=O)N1CCC[C@H]1C(=O)N[C@@H](CC(N)=O)C(=O)NCC(=O)N[C@@H](C)C(=O)N[C@@H](CCC(=O)O)C(=O)N[C@@H](CC(=O)O)C(=O)N[C@@H](CCC(=O)O)C(=O)N[C@@H](CO)C(=O)N[C@@H](C)C(=O)N[C@@H](CCC(=O)O)C(=O)N[C@@H](C)C(=O)N[C@@H](Cc1ccccc1)C(=O)N1CCC[C@H]1C(=O)N[C@@H](CC(C)C)C(=O)N[C@@H](CCC(=O)O)C(=O)N[C@@H](Cc1ccccc1)C(=O)O)C(C)C)C(C)C)C(C)C [ACTH (1–39), adrenocorticotropic hormone] (H-SYSMEHFRWGKPVGKKRRPVKVYPNGAEDESAEAFPLEF-OH; N-terminus and C-terminus assumed)
Human MC5; ref [40]
  Ki: 4920 ± 610 nM
Human MC3; ref [40]
  Ki: 135 ± 22 nM
Human MC4; ref [40]
  Ki: 2170 ± 120 nM
Lamprey MCa receptor; [2]
  affinity for lamprey MCa compared to the human MC4 and MC5 receptors: clearly higher affinities
  affinity for lamprey MCa compared to the human MC1 and MC3 receptors: clearly lower affinities
Human MC1; ref [40]
  Ki: 3.95 ± 0.67 nM

## β-melanocyte stimulating hormone [β-MSH]
Human MC5; ref [39]
  Ki: 14400 ± 1670 nM
Human MC3; ref [42]
  Ki: 15.1 ± 3.4 nM
Human MC4; ref [42]
  Ki: 387 ± 208 nM
Lamprey MCa receptor; [2]
  affinity for lamprey MCa compared to the human MC4 and MC5 receptors: clearly higher affinities
  affinity for lamprey MCa compared to the human MC1 and MC3 receptors: clearly lower affinities
Human MC1; ref [38]
  Ki: 2.53 ± 0.93 nM

From paper PMC1925065, “Functional characterization of two melanocortin (MC) receptors in lamprey showing orthology to the MC1 and MC4 receptor subtypes” (BMC Evolutionary Biology, 2007)
